The values that follow come from patent publication US20150247149A1, “Detecting and Treating Liver Damage” (The Regents of the University of California, priority 2012, published 2015).

The subject of this assay is VNN1. Description: VNN1 expression in HepG2 and HepG2-derived MPs (Western blotting, flow cytometry, QPCR). The format is cell-based, human. As to conditions: HepG2 exposed to 0.25 mM FFA. The method, then:
HepG2 were trypsinized and 8×10^5 cells were seeded in a 6-well plate. To knockdown VNN1 or PPARα in hepatocytes, HepG2 were incubated with 50 nM of silencing RNA (siRNA) for VNN1 or PPARα and control siRNA (Ctrl siRNA) dissolved in Lipofectamine 2000 (Life Technologies, Carlsbad, Calif., USA). Transfection was performed according to the manufacturer instructions. After 48 h post transfection, cells were treated with 0.25 mM of palmitic acid for 24 h and microparticles were isolated from the supernatant by ultracentrifugation. The efficiency of transfection has been confirmed in hepatocytes and microparticles by Western blotting as described in the “Protein analysis” paragraph. […] In vivo VNN1 knockdown experiments during experimental NASH were assessed by weekly injection of VNN1 stealthRNA (Life Technology), control siRNA (Ctrl siRNA) or PBS as vehicle (mock) in C57BL/6 mice fed with the MCD diet for 6 weeks. […]
Tissue (liver, intestine, spleen and kidney) from MCD- and MCS-fed mice (Casp-3−/−, WT, treated with VNN1 siRNA and controls) was homogenized using the FastPrep 24 bead homogenization system. […] The concentration and purity of RNA was assessed by NanoDrop (Thermo Scientific). Quantitative Real time PCR was performed on a BioRad Cycler (BioRad) by using SYBRGreen real time PCR master mix (Kapabiosystem, Woburn, Mass., USA) according to the manufacturer instructions. […]

The structures appear in SMILES notation.

Take `CCCCCCCC/C=C\CCCCCCCC(=O)O` [oleic acid]: the “VNN1 expression in MPs from FFA-treated cells (Western blot)” value was “not”.
In the case of `CCCCCCCCCCCCCCCC(=O)O` [palmitic acid], the “VNN1 expression in MPs from FFA-treated cells (Western blot)” value is on record as “expressed”.
